Source: the NIST ThermoML archive (doi:10.1016/j.jct.2015.09.016)

What was measured:
[1] = wn = mass fraction of the nth substance listed; conditions: 303.15 K, 100 kPa, Liquid; for electrical conductivity: Alternating current cell with electrodes; for viscosity: Falling or rolling sphere viscometry; for speed of sound: Frequency=3 MHz, Sing-around technique in a fixed-path interferometer; for mass density: Vibrating tube method
[2] = refractive index (Na D-line) (dimensionless); conditions: 303.15 K; 101.33 kPa; Liquid; Standard Abbe refractometry
[3] = 101.33 kPa, Liquid; for electrical conductivity: Alternating current cell with electrodes; for viscosity: Falling or rolling sphere viscometry; for speed of sound: Sing-around technique in a fixed-path interferometer; for mass density: Vibrating tube method

CCCC[NH2+]CCO.O=[N+]([O-])[O-] [N-(2-hydroxyethyl)butan-1-aminium nitrate] + O
[1]
Conditions | electrical conductivity [S/m] | mass density [kg/m3] | speed of sound [m/s] | viscosity [mPa·s]
w2 = 0.002318 | 0.0583 | 1114.69 | 1608.3 | 272.1
w2 = 0.003573 | 0.0585 | – | – | –
w2 = 0.003967 | – | 1114.88 | 1608.7 | 271.5
w2 = 0.004837 | 0.0587 | – | – | –
w2 = 0.005068 | – | 1115.01 | 1609 | 271.1
w2 = 0.006108 | 0.0589 | – | – | –
w2 = 0.006904 | – | 1115.21 | 1609.4 | 270.5
w2 = 0.007452 | 0.0591 | – | – | –
w2 = 0.008717 | – | 1115.39 | 1609.8 | 269.8

CCCC[NH2+]CCO.O=C([O-])C(F)(F)F [N-(2-hydroxyethyl)butan-1-aminium 2,2,2-trifluoroacetate]
Conditions | refractive index
[2] | 1.4126

[3]
Conditions | electrical conductivity [S/m] | mass density [kg/m3] | speed of sound [m/s] | viscosity [mPa·s]
303.15 K | 0.0391 | 1203.34 | 1282.6 | 211.7
308.15 K | 0.0494 | 1198.07 | 1270 | 171.1
313.15 K | 0.0596 | 1194.18 | 1257.7 | 135.3
318.15 K | 0.0703 | 1190.28 | 1245.7 | 104.6
323.15 K | 0.0811 | 1186.37 | 1233.9 | 81.7
328.15 K | 0.0916 | 1182.48 | 1222.4 | 64.7
333.15 K | 0.103 | 1178.6 | 1211 | 52.3
338.15 K | 0.116 | 1174.73 | 1199.8 | 42.8
343.15 K | 0.128 | 1170.87 | 1188.7 | 35.6

CCCC[NH2+]CCO.O=C([O-])C(F)(F)F [N-(2-hydroxyethyl)butan-1-aminium 2,2,2-trifluoroacetate] + O
[1]
Conditions | electrical conductivity [S/m] | mass density [kg/m3] | speed of sound [m/s] | viscosity [mPa·s]
w2 = 0.002186 | 0.0391 | 1203.34 | 1282.6 | 211.7
w2 = 0.003652 | 0.0393 | – | – | –
w2 = 0.003864 | – | 1203.51 | 1282.9 | 211.1
w2 = 0.004819 | 0.0394 | – | – | –
w2 = 0.005373 | – | 1203.68 | 1283.2 | 210.4
w2 = 0.006342 | 0.0396 | – | – | –
w2 = 0.006759 | – | 1203.81 | 1283.4 | 209.8
w2 = 0.007483 | 0.0398 | – | – | –
w2 = 0.008675 | – | 1204 | 1283.7 | 209.1

CCCC[NH2+]CCO.O=[N+]([O-])[O-] [N-(2-hydroxyethyl)butan-1-aminium nitrate]
Conditions | refractive index
[2] | 1.4675

[3]
Conditions | electrical conductivity [S/m] | mass density [kg/m3] | speed of sound [m/s] | viscosity [mPa·s]
303.15 K | 0.0583 | 1114.69 | 1608.3 | 272.1
308.15 K | 0.0701 | 1111.58 | 1595.7 | 202.9
313.15 K | 0.085 | 1108.47 | 1583.5 | 154
318.15 K | 0.0982 | 1105.35 | 1571.5 | 119.2
323.15 K | 0.115 | 1102.25 | 1559.7 | 93.3
328.15 K | 0.136 | 1099.15 | 1548.1 | 74.1
333.15 K | 0.16 | 1096.07 | 1536.7 | 59.6
338.15 K | 0.182 | 1093 | 1525.4 | 48.8
343.15 K | 0.2 | 1089.95 | 1514.3 | 40.6
